# Reference: patent US9308157B2, “Whitening cosmetic” (AJINOMOTO CO., INC., priority 2011, dated 2016)
# Several values for one entry are separate records, joined by “and”; a condition that tells them apart may be missing. Equal values may be shown once.
# Experiments:
# Type in all cases: cell-based
# [1] = system: B16 melanoma; test: Melanin production rate measurement (Experimental Example 1, 6 well plate, medium + cell melanin); details: for melanin production suppressive effect / whitening effect when combined as component (B): combined with (A) N-Ac-CP2Et; for melanin production suppressive effect / whitening effect when combined as component (B) / melanin production suppressing effect / whitening effect when combined as component (B): summary of Table 1, highest grade stated; for melanin production suppressing effect / whitening effect when combined as component (B): combined with (A) N-Ac-CP; for activity at 20000 µM: 20 mM; for activity at 22500 µM: 22.5 mM
# Experimental: B16 melanoma was cultured in DMEM (Dulbecco's Modified Eagle Medium) (high glucose, containing 10% serum). After confluence, the cells were seeded on a 6 well plate. The next day, each well medium was exchanged with DMEM (300 μM tyrosine added) added with each evaluation sample at a given evaluation concentration (Table 1), and the cells were cultured for 3 days. […] The medium was recovered, and centrifuged at 10000 rpm for 10 min. The absorbance of the supernatant at 450 nm was measured by spectrophotometer. The medium was recovered, and the cells were rinsed once with PBS (phosphate-buffered saline). A blending solution of 4% aqueous sodium hydroxide solution and dimethyl sulfoxide (9:1) was added to the well, and the mixture was stood at room temperature for 10 min. The cells were dissolved and recovered, and centrifuged at 3500 rpm for 10 min. The absorbance (450 nm) of the supernatant was measured by spectrophotometer. The total of the melanin amount in the medium and in the cell was calculated from the analytical curve drawn using synthetic melanin. By setting the calculated value 3 days after addition of each sample at a given concentration as a relative percentage to the calculated value of the control (no sample addition) defined as 100%, the melanin production rate of each sample to the melanin amount in the control as 100% was calculated. When a sample was dissolved dimethyl sulfoxide and then added, a sample containing 0.1% dimethyl sulfoxide was used as a control (no sample addition). The melanin production rate was standardized from the amount of cell protein obtained in Experimental Example 2.
# (§1) The spectrophotometer used in this melanin production suppression test was DU800, manufactured by BECKMAN COULTER.
# The melanin production rate of each sample was measured for a single use and combined use, and the effect of the combined use was evaluated by the following criteria using the theoretical value.
# The theoretical value was melanin production rate (%) by single use of component (A)×melanin production rate (%) by single use of component (B)/100.
# [2] = system: B16 melanoma; test: Cell viability rate measurement (Experimental Example 2, cell protein amount); details: for cell viability rate (single): single use, 3 days; for safety when combined as component (B): summary of Table 1, highest grade stated
# Experimental: B16 melanoma was cultured in DMEM (Dulbecco's Modified Eagle Medium) (high glucose, containing 10% serum). After confluence, the cells were seeded on a 6 well plate. The next day, each well medium was exchanged with DMEM (300 μM tyrosine added) added with each evaluation sample at a given evaluation concentration (Table 1), and the cells were cultured for 3 days. The medium was recovered, and the cells were rinsed once with PBS (phosphate-buffered saline). A blending solution of 4% aqueous sodium hydroxide solution and dimethyl sulfoxide (9:1) was added to the well, and the mixture was stood at room temperature for 10 min. The cells were dissolved and recovered, and centrifuged at 3500 rpm for 10 min, and the supernatant was diluted 3-fold with milli-Q water. Solution A (DC Protein Assay; BIO RAD, 100 μl) was added to the diluted solution (20 μl) and the mixture was admixed in a vortex. Solution B (DC Protein Assay; BIO RAD, 800 μl) was added and mixed therewith, and the mixture was stood at room temperature for 15 min. After standing, the absorbance (750 nm) was measured by a spectrophotometer. In addition, the analytical curve of albumin was determined, the protein amount of the above-mentioned solution was calculated, and the relative rate was taken as a viability rate.
# as §1
# The cell viability rate of each sample was measured for a single use and combined use, and the effect of the combined use was evaluated by the following criteria using the degree of toxic mitigation.
# The degree of toxic mitigation was cell viability rate (%) by combined use of component (A) and component (B)−cell viability rate (%) by single use of component (B).
# [3] = system: B16 melanoma; test: Melanin production rate measurement (Experimental Example 3, 96 well plate, 5-25 mM); details: for IC50: Mus musculus, B16, 72 h, 3 days, samples 5-25 mM, read-out: concentration suppressing melanin production by 50%
# Experimental: The cysteine derivatives of Synthetic Example 1 and Synthetic Example 3 were measured for a melanin production rate for comparison of a whitening effect. B16 melanoma was cultured in DMEM (Dulbecco's Modified Eagle Medium) (containing high glucose, serum 10%). After confluence, it was seeded in a 96 well plate. The next day, each well medium was exchanged with DMEM added with each evaluation sample adjusted to 5-25 mM, and the cells were cultured for 3 days. The absorbance at 450 nm was measured by a microplatereader. By setting the measurement value 3 days after addition of each sample at a given concentration as a relative percentage to the measurement value of the control (no sample addition) defined as 100%, the melanin production rate of each sample to the melanin amount in the control as 100% was calculated.
# The calculated concentrations of the cysteine derivatives of Synthetic Example 1 and Synthetic Example 3 necessary for suppressing the melanin production rate by 50% are shown in Table 2.
# The microplatereader used in this melanin production suppressing test was MULTISKAN FC manufactured by Thermo Fisher Scientific Inc.
# [4] = Mus musculus, B16, 72 h, single use, 3 days, control = 100%
compound,measurement,setting,value
OC[C@H]1O[C@@H](Oc2ccc(O)cc2)[C@H](O)[C@@H](O)[C@@H]1O [arbutin],melanin production suppressive effect / whitening effect when combined as component (B),[1],extremely remarkably improved
same,melanin production suppressing effect / whitening effect when combined as component (B),[1],improved
same,cell viability rate (single),[2]; 0.5 mM,85.5% and 96.5%
same,safety when combined as component (B),[2]; combined with (A) N-Ac-CP2Et,improved
same,safety when combined as component (B),[2]; combined with (A) N-Ac-CP,improved
"CCCCCCc1ccc(O)cc1O [rcinol, 4-hexylresorcinol]",activity at 12.5 µM,"[1]; Mus musculus, B16, 72 h, 12.5 μM, single use, 3 days, control = 100%",66.2%
same,melanin production suppressive effect / whitening effect when combined as component (B),[1],improved
same,cell viability rate (single),[2]; 12.5 μM,94.3%
same,safety when combined as component (B),[2]; combined with (A) N-Ac-CP2Et,remarkably improved
O=c1oc2c(O)c(O)cc3c(=O)oc4c(O)c(O)cc1c4c23 [ellagic acid],activity at 6 µM,"[1]; Mus musculus, B16, 72 h, 6 μM, single use, 3 days, control = 100%",100%
same,melanin production suppressive effect / whitening effect when combined as component (B),[1],improved
same,cell viability rate (single),[2]; 6 μM,96.1%
same,safety when combined as component (B),[2]; combined with (A) N-Ac-CP2Et,extremely remarkably improved
"CCOC(=O)C1(C)SCC(C(=O)O)N1C(C)=O (stereo not shown) [N—Ac-CP2Et, N-acetyl-2-methylthiazolidine-2,4-dicarboxylic acid 2-ethyl ester]",activity at 15000 µM,"[1]; Mus musculus, B16, 72 h, 15 mM, single use, 3 days, control = 100%",92.2%
same,activity at 20000 µM,[1]; [4],62%
same,activity at 22500 µM,[1]; [4],48.6%
same,cell viability rate (single),[2]; 15 mM,105.7%
same,cell viability rate (single),[2]; 20 mM,101.5%
same,cell viability rate (single),[2]; 22.5 mM,98.6%
same,IC50,[3],18.9 mM
CCCCC/C=C\C/C=C\CCCCCCCC(=O)O [linoleic acid],activity at 75 µM,"[1]; Mus musculus, B16, 72 h, 75 μM, single use, 3 days, control = 100%",71.3%
same,melanin production suppressive effect / whitening effect when combined as component (B),[1],improved
same,cell viability rate (single),[2]; 75 μM,105.2%
same,safety when combined as component (B),[2]; combined with (A) N-Ac-CP2Et,remarkably improved
O=c1cc(CO)occ1O [kojic acid],activity at 250 µM,"[1]; Mus musculus, B16, 72 h, 0.25 mM, single use, 3 days, control = 100%",66%
same,melanin production suppressive effect / whitening effect when combined as component (B),[1],extremely remarkably improved
same,cell viability rate (single),[2]; 0.25 mM,99.1%
same,safety when combined as component (B),[2]; combined with (A) N-Ac-CP2Et,extremely remarkably improved
"CC(=O)N1C(C(=O)O)CSC1(C)C(=O)O (stereo not shown) [N—Ac-CP, N-acetyl-2-methylthiazolidine-2,4-dicarboxylic acid]",activity at 20000 µM,[1]; [4],59.4%
same,activity at 22500 µM,[1]; [4],45.1%
same,activity at 25000 µM,"[1]; Mus musculus, B16, 72 h, 25 mM, single use, 3 days, control = 100%",35.3%
same,cell viability rate (single),[2]; 20 mM,95.6%
same,cell viability rate (single),[2]; 22.5 mM,100.6%
same,cell viability rate (single),[2]; 25 mM,97.8%
"CCOC(=O)[C@]1(C)SC[C@@H](C(=O)O)N1C(C)=O [Synthetic Example 3, (2S,4R)-N-acetyl-2-methylthiazolidine-2,4-dicarboxylic acid 2-ethyl ester]",IC50,[3],16.6 mM
same,melanin production suppressing effect compared with Synthetic Example 1,[3]; from Table 2,stronger
"CCCCCCCCCCCCCCCCOC1=C(O)C(=O)O[C@@H]1[C@@H](O)CO [cetyl ascorbyl ether, 3-o-cetyl ascorbyl ether]",Melanin production rate (single),"[1]; 30 μM, single use, 3 days, control = 100%",72.8% and 67.6%
same,melanin production suppressive effect / whitening effect when combined as component (B),[1],remarkably improved
same,melanin production suppressing effect / whitening effect when combined as component (B),[1],remarkably improved
same,cell viability rate (single),[2]; 30 μM,75.8%
"N[C@@H](CCC(=O)N[C@@H](CS)C(=O)NCC(=O)O)C(=O)O [GSH, glutathione (reduced type)]",activity at 500 µM,"[1]; Mus musculus, B16, 72 h, 0.5 mM, single use, 3 days, control = 100%",100%
same,activity at 2000 µM,"[1]; Mus musculus, B16, 72 h, 2 mM, single use, 3 days, control = 100%",100%
same,melanin production suppressive effect / whitening effect when combined as component (B),[1],improved
same,melanin production suppressing effect / whitening effect when combined as component (B),[1],extremely remarkably improved
same,cell viability rate (single),[2]; 0.5 mM,94.4%
same,cell viability rate (single),[2]; 2 mM,67.8%
same,safety when combined as component (B),[2]; combined with (A) N-Ac-CP2Et,remarkably improved
same,safety when combined as component (B),[2]; combined with (A) N-Ac-CP,remarkably improved
"NC[C@H]1CC[C@H](C(=O)O)CC1 [tranexamic acid, trans-4-(aminomethyl)-cyclohexanecarboxylic acid]",activity at 10000 µM,"[1]; Mus musculus, B16, 72 h, 10 mM, single use, 3 days, control = 100%",100%
same,melanin production suppressive effect / whitening effect when combined as component (B),[1],extremely remarkably improved
same,cell viability rate (single),[2]; 10 mM,93.1%
same,safety when combined as component (B),[2]; combined with (A) N-Ac-CP2Et,remarkably improved
"COc1ccc(C(=O)O)c(O)c1 [4-MS, 4-methoxy salicylic acid]",activity at 5000 µM,"[1]; Mus musculus, B16, 72 h, 5 mM (0.0084%), single use, 3 days, control = 100%",100%
same,melanin production suppressive effect / whitening effect when combined as component (B),[1],extremely remarkably improved
same,cell viability rate (single),[2]; 5 mM (0.0084%),87.0%
